Measured values: article PMC8620715, “Biological Activity of Triazolopyrimidine Copper(II) Complexes Modulated by an Auxiliary N-N-Chelating Heterocycle Ligands” (Molecules, 2021)
Values after ≈ are worked out from the molar mass of the structure shown. Like-named read-outs stand apart in the source and are kept apart here.

Assays:
[1] = tested on: B16 murine melanoma cell line; details: cited from earlier work; for TI: 48 h; for IC50: B16, 48 h
E. coli 25922 [2] = details: cited from earlier work
P. aeruginosa 27853 [3] = details: cited from earlier work
S. aureus 25923 [4] = details: cited from earlier work
MRSA 388 [5] = details: cited from earlier work
E. coli 25922 [6] = details: E. coli 25922, biofilm; cited from earlier work
P. aeruginosa 27853 [7] = details: P. aeruginosa 27853, biofilm; cited from earlier work
S. aureus 25923 [8] = details: S. aureus 25923, biofilm; cited from earlier work
MRSA 388 [9] = details: MRSA 388, biofilm; cited from earlier work
[10] = tested on: B16 murine melanoma cell line; assay: MTT cell viability assay, B16 melanoma cells; type: cell-based, mouse; details: 24 h and 48 h
Method: (§1) Human fibroblast cells (BJ—ATCC CRL-2522, USA) were grown in minimal essential medium (MEM) supplemented with 2 mM L-Glutamine, 10% fetal calf serum (FCS), 100 units/mL of penicillin, and 100 µg/mL of streptomycin at 37 °C in a humidified incubator under an atmosphere containing 5% CO2. Mouse melanoma cells (B16—ATCC CRL—6475, USA) were grown in DMEM (Dulbecco’s Modified Eagle Medium) supplemented with similar reagents as MEM. All cell cultivation media and reagents were purchased from Biochrom AG (Berlin, Germany) and Sigma-Aldrich (Darmstadt, Germany).
(§2) Cell viability was evaluated using 3-(4,5-dimethylthiazol-2-yl)-2,5-diphenyltetrazolium bromide (MTT) assay as described previously. First, the cells were seeded in 96-well plates (20000 cells/well) and cultured for 24 h in medium. […] The negative control was represented by cells cultivated in a medium without the investigated compounds. Following incubation, the medium was changed, and the MTT solution was added to each well to a final concentration of 1 mg/mL and incubated for an additional 4 h, at 37 °C. Finally, the medium was collected, and DMSO was used to dissolve the insoluble formazan product. The absorbance of the samples was recorded at 570 nm using a plate reader Mithras 940 (Berthold). The data were corrected for the background, and the percentage of viable cells was obtained using the equation:Cell viability = [(A570 of treated cells)/(A570 of untreated cells)] × 100%(1)
(§3) The half-maximal inhibitory concentration (IC50) was determined by fitting the data with a sigmoidal logistical equation using the software Origin 8.1 (Microcal Inc., Los Angeles, CA, USA).

[11] = tested on: BJ normal cell line (human fibroblast cells); assay: MTT cell viability assay, BJ normal cells; type: cell-based; details: range of tested concentrations, 24 h and 48 h
Method: as §1, §2, §3

BJ cells [12] = assay: Lactate dehydrogenase (LDH) release assay, BJ cells; type: cell-based, human; details: 24 h and 48 h
Method: (§4) Membrane integrity after peptide treatment was assessed based on LDH release using a CytoTox 96 Non-Radioactive Cytotoxicity Assay (Promega), as previously described. […] Maximal LDH release was obtained by complete cell lysis induced by using 1% of Triton X-100. The absorption resulting from LDH activity was measured in a microplate reader Mithras 940 (Berthold) at 490 nm, and the % LDH was calculated as: [(corrected absorbance of the LDH released in treated cells)/(corrected absorbance of the total LDH released)] * 100%.

B16 cells [13] = assay: Lactate dehydrogenase (LDH) release assay, B16 cells; type: cell-based, mouse; details: B16, 24 h and 48 h
Method: as §4

E. coli 25922 [14] = assay: MIC by broth microdilution; type: cell-based, Escherichia coli; details: Escherichia coli; E. coli 25922, planktonic; read-out: MIC
Method: (§5) The antibacterial assays were carried out using two Gram-negative (Escherichia coli ATCC 25922, Pseudomonas aeruginosa ATCC 27853) and two Gram-positive (Staphylococcus aureus ATCC 25923, MRSA (meticillin-Resistant S. aureus) 388 (ATCC, American Type Culture Collection) bacteria.
(§6) The antimicrobial activity of the two complexes (1) and (2) was assessed using their minimum inhibitory concentration (MIC) by the broth microdilution method, as previously described by the Clinical and Laboratory Standard Institute (CLSI; M07-A9 document). A broth microdilution assay was performed in sterile 96-well plates using Muller-Hinton broth (Scharlau; MHB). The compounds solubilized in […] (1,000 μg/mL) were serially diluted in 90 μL MHB, in concentrations ranging between 500 and 0.97 μg/mL. Overnight cultures were used to prepare suspension in phosphate-buffered saline (pH 7.0) to match a 0.5 McFarland density. The bacterial suspensions were further diluted to 1:100 by adding 0.1 mL of bacterial suspension to 9.9 mL of MHB. A volume of 10 μL of this dilution was added to each well of columns 1–10, containing different concentrations of the tested compounds. […] Additionally, 10 μL of the diluted bacterial suspension was added in column 11 (the growth control). A volume of 100 μL MHB was added to the microtiter plates’ sterility control wells (column 12). After inoculation, the plates were incubated at 35 ± 2 °C for 18 h. Growth was measured as light absorbance (620 nm) in comparison to an uninoculated well (negative control). It was detected using a microtiter plate reader (Apollo LB 911ELISA (Berthold Technologies GmbH & Co. KG, Waltham, MA, USA)). The MIC of each compound was defined as the lowest concentration required to inhibit bacterial growth.

P. aeruginosa 27853 [15] = assay: MIC by broth microdilution; type: cell-based, Pseudomonas aeruginosa; details: Pseudomonas aeruginosa; P. aeruginosa 27853, planktonic; read-out: MIC
Method: as §5, §6

MRSA 388 [16] = assay: MIC by broth microdilution; type: cell-based, Staphylococcus aureus; details: Staphylococcus aureus; MRSA 388, planktonic; read-out: MIC
Method: as §5, §6

S. aureus 25923 [17] = assay: MIC by broth microdilution; type: cell-based, Staphylococcus aureus; details: Staphylococcus aureus; S. aureus 25923, planktonic; read-out: MIC
Method: as §5, §6

E. coli 25922 [18] = assay: Biofilm formation on polystyrene (crystal violet), MBEC; type: cell-based, Escherichia coli; details: E. coli 25922, biofilm
Method: as §5
(§7) The method for assessment of biofilm formation on polystyrene microtiter plates was based on previously published protocols. The absorbance at 490 nm was measured with an Apollo LB 911ELISA (Berthold Technologies GmbH & Co. KG, Waltham, MA, USA) reader. The minimal biofilm-eradication concentration (MBEC) was defined as the lowest concentration of antibiotics required to eradicate the biofilm. All experiments were performed in triplicate.

P. aeruginosa 27853 [19] = assay: as above; type: cell-based, Pseudomonas aeruginosa; details: P. aeruginosa 27853, biofilm
Method: as §5, §7

MRSA 388 [20] = assay: as above; type: cell-based, Staphylococcus aureus; details: MRSA 388, biofilm
Method: as §5, §7

S. aureus 25923 [21] = assay: as above; type: cell-based, Staphylococcus aureus; details: S. aureus 25923, biofilm
Method: as §5, §7

BJ cells [22] = assay: Cell morphology by fluorescence microscopy (phalloidin staining), BJ cells; type: cell-based, human; details: 2.5 and 10 µg/mL, 24 h
Method: (§8) The morphological changes induced by the treatment of the BJ and B16 cell lines with the tested compounds at two different concentrations (2.5 and 10 µg/mL) applied for 24 h were investigated by fluorescence microscopy.
(§9) According to the manufacturer protocol, the cytoskeleton actin filaments of BJ and B16 cells were stained with phalloidin-FITC (Sigma-Aldrich, St. Louis, MO, USA). Briefly, cells were washed with PBS (5 min, 3 times), fixed for 5 min with 3% paraformaldehyde, washed three times with PBS, permeabilized with 0.1% Triton X-100 in PBS for 15 min, washed three times with PBS, stained with 20 μg/mL phalloidin-FITC at room temperature for 1 h and rewashed three times with PBS. The cell nucleus was stained with 8 μM of Hoechst 33342 solution for 10 min, washed three times with PBS, and finally, mounted and sealed on glass slides with FluorSave™ Reagent (Merck Millipore, Germany). The fluorescence images were acquired using an Andor DSD2 Confocal Unit (Andor, Ireland), mounted on an epifluorescence microscope, Olympus BX-51 (Olympus, Germany), equipped with a 40x and 100x objective and an appropriate DAPI/Hoechst filter cube (excitation filter 390/40 […], dichroic mirror 405 nm and emission filter 452/45 nm) and GFP/FITC filter cube (excitation filter 466/40 nm, dichroic mirror 488 nm and emission filter 525/54 nm).

B16 cells [23] = assay: Cell morphology by fluorescence microscopy (phalloidin staining), B16 cells; type: cell-based, mouse; details: 2.5 µg/mL (2.84 μM and 2.76 μM for the complexes), 24 h
Method: as §8, §9

For O.[Cu+2].[O-][Cl+3]([O-])([O-])[O-].[O-][Cl+3]([O-])([O-])[O-].c1cnc2c(c1)ccc1cccnc12.c1cnc2c(c1)ccc1cccnc12 [CupP, [Cu(phen)2(OH2)](ClO4)2], the TI [1] is given as 0.80, the IC50 [1] is given as 3.7 µM and the MIC (E. coli 25922 [2]) is given as 30 µM. The MIC (P. aeruginosa 27853 [3]) was 500 µM, the MIC (S. aureus 25923 [4]) was 30 µM and the MIC (MRSA 388 [5]) was 120 µM. For the same molecule, the MBEC (E. coli 25922 [6]) was 0.10 mM, the MBEC (P. aeruginosa 27853 [7]) was 0.50 mM and the MBEC (S. aureus 25923 [8]) was 0.03 mM. The MBEC (MRSA 388 [9]) was 0.10 mM.
In the case of Cc1cc(C)n2ncnc2n1 [dmtp, 5,7-dimethyl-1,2,4-triazolo[1,5-a]pyrimidine, reference compound], the “effect on viability of B16 cells” value [10] is reported as “did not affect the viability”, the “effect on viability of BJ cells” value [11] is reported as “did not affect the viability” and the “membrane integrity (LDH release)” value (BJ cells [12]) is reported as “did not affect the membrane integrity”. The “membrane integrity (LDH release)” value (B16 cells [13]) was “did not affect the membrane integrity”, the MIC (E. coli 25922 [14]) was 8450 µM (≈ 1250 µg/mL) and the MIC (P. aeruginosa 27853 [15]) was 8450 µM (≈ 1250 µg/mL). It also gave an MIC (MRSA 388 [16]) of 16900 µM (≈ 2500 µg/mL), an MIC (S. aureus 25923 [17]) of 8450 µM (≈ 1250 µg/mL) and an MBEC (E. coli 25922 [18]) of 8.45 mM. For the same molecule, the MBEC (P. aeruginosa 27853 [19]) was 8.45 mM, the MBEC (MRSA 388 [20]) was 16.90 mM and the MBEC (S. aureus 25923 [21]) was 8.45 mM. For the same molecule, the “morphological changes of BJ cells” value (BJ cells [22]) was “did not alter their morphology” and the “morphological changes of B16 cells” value (B16 cells [23]) was “not altered”.
For Cc1cc(-c2ccccc2)nc2ncnn12.[Cu+2].[O-][Cl+3]([O-])([O-])[O-].[O-][Cl+3]([O-])([O-])[O-].c1ccc(-c2ccccn2)nc1.c1ccc(-c2ccccn2)nc1 [CubPP, [Cu(bpy)2(pmtp)](ClO4)2], the TI [1] is listed as 3.23, the IC50 [1] is listed as 20 µM and the MIC (E. coli 25922 [2]) is listed as 200 µM. For the same molecule, the MIC (P. aeruginosa 27853 [3]) was 400 µM, the MIC (S. aureus 25923 [4]) was 400 µM and the MIC (MRSA 388 [5]) was 400 µM. For the same molecule, the MBEC (E. coli 25922 [6]) was 0.40 mM, the MBEC (P. aeruginosa 27853 [7]) was 0.40 mM and the MBEC (S. aureus 25923 [8]) was 0.80 mM. For the same molecule, the MBEC (MRSA 388 [9]) was 0.40 mM.
In the case of {[Cu(bpy)2(μ2OClO3)]ClO4}n [CubP], the TI [1] is listed as 5.53, the IC50 [1] is listed as 16 µM and the MIC (E. coli 25922 [2]) is listed as 540 µM. For the same molecule, the MIC (P. aeruginosa 27853 [3]) was 1090 µM, the MIC (S. aureus 25923 [4]) was 270 µM and the MIC (MRSA 388 [5]) was 270 µM. The MBEC (E. coli 25922 [6]) was 0.54 mM, the MBEC (P. aeruginosa 27853 [7]) was 1.09 mM and the MBEC (S. aureus 25923 [8]) was 0.14 mM. The MBEC (MRSA 388 [9]) was 0.27 mM.
For Cc1cc(-c2ccccc2)nc2ncnn12.[Cu+2].[O-][Cl+3]([O-])([O-])[O-].[O-][Cl+3]([O-])([O-])[O-].c1cnc2c(c1)ccc1cccnc12.c1cnc2c(c1)ccc1cccnc12 [CupPP, [Cu(phen)2(pmtp)](ClO4)2], the TI [1] is listed as 0.88, the IC50 [1] is listed as 4 µM and the MIC (E. coli 25922 [2]) is listed as 20 µM. For the same molecule, the MIC (P. aeruginosa 27853 [3]) was 90 µM, the MIC (S. aureus 25923 [4]) was 10 µM and the MIC (MRSA 388 [5]) was 50 µM. For the same molecule, the MBEC (E. coli 25922 [6]) was 0.02 mM, the MBEC (P. aeruginosa 27853 [7]) was 0.09 mM and the MBEC (S. aureus 25923 [8]) was 0.01 mM. For the same molecule, the MBEC (MRSA 388 [9]) was 0.05 mM.
